The results in this text go back to ChEMBL document CHEMBL5543109, “Novel β-Hairpin Antimicrobial Peptide Containing the β-Turn Sequence of -NG- and the Tryptophan Zippers Facilitate Self-Assembly into Nanofibers, Exhibiting Excellent Antimicrobial Performance” (J Med Chem, 2024).

Converted amounts (≈) assume the structure as drawn.

The subject of data set [1] is Staphylococcus aureus. Kind of data set: Antibacterial activity against methicillin resistant Staphylococcus aureus incubated for 18 hrs by broth microdilution method. The data set is classed as functional. A general note: Dilution methods test growth across graded concentrations, often in twofold steps.
Data set [2] relates to Staphylococcus aureus. Description: Antibacterial activity against methicillin resistant Staphylococcus aureus 113 incubated for 18 hrs by broth microdilution method. The data set is classed as functional.
Data set [3] deals with Staphylococcus aureus. Description: Antibacterial activity against Staphylococcus aureus S794 incubated for 18 hrs by broth microdilution method. The class given is functional.
In data set [4] the test system is Staphylococcus aureus. Kind of data set: Antibacterial activity against Staphylococcus aureus S125 incubated for 18 hrs by broth microdilution method. The class given is functional.
Data set [5] deals with Staphylococcus aureus. Description: Antibacterial activity against methicillin resistant Staphylococcus aureus 75 incubated for 18 hrs by broth microdilution method. The class given is functional.
Data set [6] has as its system Staphylococcus aureus. Description: Antibacterial activity against Staphylococcus aureus incubated for 18 hrs by broth microdilution method. The class given is functional.
Data set [7] deals with Staphylococcus aureus. Kind of data set: Antibacterial activity against kanamycin resistant Staphylococcus aureus incubated for 18 hrs by broth microdilution method. The class given is functional.
Data set [8] relates to Staphylococcus aureus. Kind of data set: Antibacterial activity against rifampicin resistant Staphylococcus aureus incubated for 18 hrs by broth microdilution method. The data set is classed as functional.
The subject of data set [9] is Escherichia coli. Kind of data set: Antibacterial activity against Escherichia coli incubated for 18 hrs by broth microdilution method. The data set is classed as functional.
In data set [10] the test system is Escherichia coli. Kind of data set: Antibacterial activity against kanamycin resistant Escherichia coli incubated for 18 hrs by broth microdilution method. The data set is classed as functional.
In data set [11] the test system is Escherichia coli. Description: Antibacterial activity against rifampicin resistant Escherichia coli incubated for 18 hrs by broth microdilution method. The data set is classed as functional.
In data set [12] the test system is Staphylococcus aureus. Description: Antibacterial activity against Staphylococcus aureus ATCC 25923 incubated for 18 hrs by broth microdilution method. The data set is classed as functional.
In data set [13] the test system is Bacillus subtilis. Kind of data set: Antibacterial activity against Bacillus subtilis ATCC 23857 incubated for 18 hrs by broth microdilution method. The data set is classed as functional.
The test system of data set [14] is Staphylococcus epidermidis. Kind of data set: Antibacterial activity against Staphylococcus epidermidis ATCC 12228 incubated for 18 hrs by broth microdilution method. The data set is classed as functional.
Data set [15] has as its system Klebsiella pneumoniae. Description: Antibacterial activity against Klebsiella pneumoniae ATCC 700603 incubated for 18 hrs by broth microdilution method. The class given is functional.
Data set [16] concerns Escherichia coli. Description: Antibacterial activity against Escherichia coli ATCC 25922 incubated for 18 hrs by broth microdilution method. The class given is functional.
Data set [17] concerns Pseudomonas aeruginosa. Description: Antibacterial activity against Pseudomonas aeruginosa ATCC 27853 incubated for 18 hrs by broth microdilution method. The class given is functional.
Data set [18] deals with Staphylococcus aureus. Kind of data set: Bactericidal activity against Staphylococcus aureus ATCC 25923 incubated for 18 hrs by broth microdilution method. The class given is functional.
Data set [19] concerns Bacillus subtilis. Kind of data set: Bactericidal activity against Bacillus subtilis ATCC 23857 incubated for 18 hrs by broth microdilution method. The data set is classed as functional.
The subject of data set [20] is Staphylococcus epidermidis. Description: Bactericidal activity against Staphylococcus epidermidis ATCC 12228 incubated for 18 hrs by broth microdilution method. The class given is functional.
Data set [21] concerns Klebsiella pneumoniae. Description: Bactericidal activity against Klebsiella pneumoniae ATCC 700603 incubated for 18 hrs by broth microdilution method. The data set is classed as functional.
For data set [22], the system named is Escherichia coli. Description: Bactericidal activity against Escherichia coli ATCC 25922 incubated for 18 hrs by broth microdilution method. The data set is classed as functional.
Data set [23] relates to Pseudomonas aeruginosa. Description: Bactericidal activity against Pseudomonas aeruginosa ATCC 27853 incubated for 18 hrs by broth microdilution method. The data set is classed as functional.
In data set [24] the test system is Erythrocyte. Description: Hemolytic activity in mouse erythrocytes assessed as concentration required to cause 10% hemolysis incubated for 1 hr. The data set is classed as toxicity, cell-based.
The nature of data set [25]: Retention time of the compound. The class given is physicochemical.
Data set [26] deals with Staphylococcus aureus. Kind of data set: Antibacterial activity against Staphylococcus aureus at 2 times MIC preincubated for 1 hr with trypsin followed by enzyme inactivation and bacterial addition and measured after 18 hrs. The data set is classed as functional. Particulars: time 19 hrs.
Data set [27] relates to Staphylococcus aureus. Kind of data set: Antibacterial activity against Staphylococcus aureus at 2 times MIC preincubated for 1 hr with chymotrypsin followed by enzyme inactivation and bacterial addition and measured after 18 hrs. The class given is functional. The following applies: time 19 hrs.

One may read the MIC as the lowest concentration that inhibits growth of the organism. Low readings indicate a more susceptible organism, high ones a less susceptible organism. As to `C[C@@H](O)[C@H]1C(=O)N2C(C(=O)O)=C(SCCNC=N)C[C@H]12` [IMIPENEM ANHYDROUS], the minimum inhibitory concentration (MIC) in data set [1] turned out to be 32 µM (≈ 9.58 µg/mL); in [2], 0.5 µM (≈ 0.15 µg/mL); in data set [3], 0.5 µM (≈ 0.15 µg/mL); in [4], 0.5 µM (≈ 0.15 µg/mL); in data set [5], 256 µM (≈ 76.6 µg/mL); in data set [6], 0.5 µM (≈ 0.15 µg/mL). For the same compound, the MIC in data set [7] came out at 0.5 µM (≈ 0.15 µg/mL); in data set [8], 0.5 µM (≈ 0.15 µg/mL); in [9] it was 0.5 µM (≈ 0.15 µg/mL); in [10] it was 8 µM (≈ 2.39 µg/mL); in data set [11], 0.5 µM (≈ 0.15 µg/mL).
What is called MBC is the smallest concentration meeting the test's criterion for killing. For the compound `NCCCC[C@@H](NC(=O)[C@H](N)Cc1c[nH]c2ccccc12)C(=O)N[C@H](Cc1c[nH]c2ccccc12)C(=O)N[C@H](CCCCN)C(=O)N[C@H](Cc1c[nH]c2ccccc12)C(=O)N1CCC[C@@H]1C(=O)N1CCC[C@H]1C(=O)N[C@H](Cc1c[nH]c2ccccc12)C(=O)N[C@H](CCCCN)C(=O)N[C@H](Cc1c[nH]c2ccccc12)C(=O)N[C@H](CCCCN)C(=O)N[C@H](Cc1c[nH]c2ccccc12)C(N)=O`, the minimum inhibitory concentration (MIC) is 4 µM (≈ 7.36 µg/mL) in data set [12]; 2 µM (≈ 3.68 µg/mL) in [13]; 4 µM (≈ 7.36 µg/mL) in data set [14]; 8 µM (≈ 14.7 µg/mL) in data set [15]; 4 µM (≈ 7.36 µg/mL) in data set [16]; 8 µM (≈ 14.7 µg/mL) in data set [17]. In addition, the minimum bactericidal concentration (MBC) stood at 8 µM (≈ 14.7 µg/mL) in [18]; 2 µM (≈ 3.68 µg/mL) in data set [19]; 8 µM (≈ 14.7 µg/mL) in [20]; 16 µM (≈ 29.5 µg/mL) in data set [21]; 4 µM (≈ 7.36 µg/mL) in data set [22]; 32 µM (≈ 58.9 µg/mL) in data set [23]. Further, in data set [24], the MHC worked out at 243.5 µM. Moreover, the Retention_time in data set [25] was 14.321 min. Besides, the Activity in data set [26] and in data set [27] was 100% throughout.
For `CO/N=C(\C(=O)N[C@@H]1C(=O)N2C(C(=O)O)=C(COC(C)=O)CS[C@H]12)c1csc(N)n1` [CEFOTAXIME], the minimum inhibitory concentration (MIC) in data set [12] was 2 µM (≈ 0.911 µg/mL); in data set [13], 64 µM (≈ 29.2 µg/mL); in [14], less than 1 µM; in [15] it was 4 µM (≈ 1.82 µg/mL); in data set [16] it was less than 1 µM; in [17], 8 µM (≈ 3.64 µg/mL). Further, the minimum inhibitory concentration (MIC) was found to be 256 µM (≈ 117 µg/mL) in data set [1]; 32 µM (≈ 14.6 µg/mL) in [2]; 256 µM (≈ 117 µg/mL) in [3]; 8 µM (≈ 3.64 µg/mL) in [4]; 256 µM (≈ 117 µg/mL) in data set [5]; 2 µM (≈ 0.911 µg/mL) in [6]. In addition, the minimum inhibitory concentration (MIC) is 0.5 µM (≈ 0.228 µg/mL) in data set [7]; 0.5 µM (≈ 0.228 µg/mL) in data set [8]; 0.5 µM (≈ 0.228 µg/mL) in data set [9]; 64 µM (≈ 29.2 µg/mL) in [10]; 0.5 µM (≈ 0.228 µg/mL) in [11].
As to GENTAMICIN, the MIC in [1] was 16 µM; in [2] it was 0.5 µM; in [3] it was 32 µM; in [4], 8 µM; in [5], 32 µM; in data set [6] it was 0.5 µM. Further, the MIC is 0.5 µM in data set [7]; 0.5 µM in data set [8]; 0.5 µM in data set [9]; 32 µM in [10]; 0.5 µM in data set [11].
On to `NCCCC[C@@H](N)C(=O)N[C@H](Cc1c[nH]c2ccccc12)C(=O)N[C@H](CCCCN)C(=O)N[C@H](Cc1c[nH]c2ccccc12)C(=O)N[C@H](CCCCN)C(=O)NCC(=O)NCC(=O)N[C@H](CCCCN)C(=O)N[C@H](Cc1c[nH]c2ccccc12)C(=O)N[C@H](CCCCN)C(=O)N[C@H](Cc1c[nH]c2ccccc12)C(=O)N[C@H](CCCCN)C(N)=O`, for which the MIC stood at 16 µM (≈ 26.3 µg/mL) in data set [12]; 2 µM (≈ 3.29 µg/mL) in data set [13]; 4 µM (≈ 6.58 µg/mL) in data set [14]; 16 µM (≈ 26.3 µg/mL) in data set [15]; 8 µM (≈ 13.2 µg/mL) in [16]; 64 µM (≈ 105 µg/mL) in [17]. The MBC in [18] was found to be 32 µM (≈ 52.6 µg/mL); in data set [19], 8 µM (≈ 13.2 µg/mL); in [20], 8 µM (≈ 13.2 µg/mL); in data set [21], 64 µM (≈ 105 µg/mL); in [22] it was 8 µM (≈ 13.2 µg/mL); in data set [23] it was 128 µM (≈ 211 µg/mL). In addition, the MHC in data set [24] is greater than 512 µM. Also, in data set [25], the Retention_time is reported as 11.03 min. For the same compound, the Activity in data set [26] and in data set [27] was 100% each time.
